{"source": "patent US20050049309A1", "about": "“Regulation of HIF protein levels via deubiquitination pathway” (priority 2003, published 2005)", "key": {"HIF-1α protein": {"test_system": "HIF-1α protein", "conditions": "recent studies (literature); cited from earlier work"}, "hypoxic cells": {"test_system": "hypoxic cells", "conditions": "cited from earlier work"}, "[1]": {"conditions": "cited from earlier work"}, "HIF-1α": {"test_system": "HIF-1α", "type": "cell-based, human"}, "[2]": {"test_system": "deubiquitinase enzyme activity (HT-29 cell lysate) on polyubiquitinated HIF-1α", "type": "biochemical, human"}}, "note": "Where a SMILES comes first, the peptide text is derived from it. [ ]: non-standard residue; d: D form. The star is where a group is joined. Nva = CCC[C@H](N)C(=O)O; Cbz = O=C(OCc1ccccc1)*", "data": [{"smiles": "C=CCNC1=C2C[C@@H](C)C[C@H](OC)[C@H](O)[C@@H](C)/C=C(\\C)[C@H](OC(N)=O)[C@@H](OC)/C=C\\C=C(/C)C(=O)NC(=CC1=O)C2=O", "note": "[17-AAG, 17-allylamino-17-desmethoxygeldanamycin]", "values": [{"measurement": "HIF-1α protein in cell-lines lacking pVHL", "setting": "HIF-1α protein", "value": "promote the loss of HIF-1α protein"}]}, {"smiles": "O=C(O)CCCc1ccc(N(CCCl)OCCCl)cc1", "note": "[CHL-HD]", "values": [{"measurement": "Toxicity with reducing enzymes under hypoxia", "setting": "hypoxic cells", "value": "greater toxicity"}, {"measurement": "In vivo toxicity", "setting": "[1]", "value": "minimal in vivo toxicity"}]}, {"smiles": "C[C@@H]1C[C@@H]([C@H](O)CC2CC(=O)NC(=O)C2)C(=O)[C@@H](C)C1", "note": "[Cycloheximide, cycloheximide]", "values": [{"measurement": "Ubiquitination of HIF-1α with proteasome inhibited", "setting": "HIF-1α", "value": "no affect"}]}, {"smiles": "CCC[C@@H](C=O)NC(=O)[C@H](CC(C)C)NC(=O)[C@H](CC(C)C)NC(=O)OCc1ccccc1", "note": "[LLnV, N-carbobenzoxy-Leu-Leu-norvalinal] (Cbz-Leu-Leu-[Nva]-aldehyde)", "values": [{"measurement": "Deubiquitination of HIF-1α in vitro", "setting": "[2]", "value": "did not affect"}]}]}
